27 compounds from the supplement of paper PMC11424490 can be followed below.

Test [1] deals with NCI-H2122. The test can be described thus: combination cScore with adagrasib (Bliss gap around IC50) (%PoC); higher = stronger additive effect. As for the experimental part: (§1)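 Combination screen of 179 inhibitors with the KRAS G12C inhibitor adagrasib (MRTX849) in dose matrices, CellTiter-Glo readout in NCI-H2122 (72 h), SW837 (144 h) and NCI-H358 cells. The cScore is the mean Bliss-independence gap (expected minus observed viability, in %PoC) over a 3x3 field around the IC50s of both drugs. Positive means additive, and >~10 is stated as clear additive.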

In test [2] the test system is SW837. Described as above. On the procedure:
as §1

For test [3], the system named is NCI-H2122. The test can be described thus: fitted bottom plateau of viability curve, % of DMSO control; higher = less maximal inhibition; extreme values may be limits of the assay. As for the experimental part:
(§2)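 CellTiter-Glo proliferation assay in KRAS G12C mutant NCI-H2122 (72 h), SW837 (144 h) and NCI-H358 cells in 384-well plates. Monotherapy dose response was fitted with a four-parameter curve after normalisation to DMSO controls (% of control, PoC). IC50 is the relative IC50, averaged over replicates. Bottom is the fitted lower plateau in %PoC; Max.Conc. is the top dose tested.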

Test [4] concerns SW837. The description is as above. On the procedure:
as §2

Test [5] has as its system NCI-H2122. The test can be described thus: combination cScore with sotorasib (Bliss gap around IC50) (%PoC); higher = stronger additive effect. As for the experimental part: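 Combination screen of 179 inhibitors with the KRAS G12C inhibitor sotorasib (AMG510) in dose matrices, CellTiter-Glo readout in NCI-H2122 (72 h), SW837 (144 h) and NCI-H358 cells. The cScore is the mean Bliss-independence gap (expected minus observed viability, in %PoC) over a 3x3 field around the IC50s of both drugs. Positive means additive, and >~10 is stated as clear additive.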

Counter-ions that a name gives are not always drawn.

`O=[N+]([O-])c1ccc(NCCNc2ncc(-c3ncc[nH]3)c(-c3ccc(Cl)cc3Cl)n2)nc1` + C=C(F)C(=O)N1CCN(c2nc(OC[C@@H]3CCCN3C)nc3c2CCN(c2cccc4cccc(Cl)c24)C3)C[C@@H]1CC#N [adagrasib]: the “combination cScore with adagrasib” value is -12.7 in the test on NCI-H2122 [1] and 5.65 in the test on SW837 [2]. The like results for `Cc1ccc(NC(=O)c2ccnc(C(F)(F)F)c2)cc1-c1cc(OCCO)nc(N2CCOCC2)c1` [LXH-254] + C=C(F)C(=O)N1CCN(c2nc(OC[C@@H]3CCCN3C)nc3c2CCN(c2cccc4cccc(Cl)c24)C3)C[C@@H]1CC#N [adagrasib] were, in that order, -3.51 and 0.67. For `COc1ccc2nc3ccc(OC)cc3c(SCCCN)c2c1` + C=C(F)C(=O)N1CCN(c2nc(OC[C@@H]3CCCN3C)nc3c2CCN(c2cccc4cccc(Cl)c24)C3)C[C@@H]1CC#N [adagrasib] the same measures were 7.77 and -2.24. For `CS(=O)(=O)c1ccc(-c2cnc(N)c(C(=O)Nc3ccccc3)n2)cc1` [VE-821] + C=C(F)C(=O)N1CCN(c2nc(OC[C@@H]3CCCN3C)nc3c2CCN(c2cccc4cccc(Cl)c24)C3)C[C@@H]1CC#N [adagrasib] the same measures were 4.3 and 12.8. On to `Nc1ncn([C@H]2C[C@H](O)[C@@H](CO)O2)c(=O)n1` [Decitabine] + C=C(F)C(=O)N1CCN(c2nc(OC[C@@H]3CCCN3C)nc3c2CCN(c2cccc4cccc(Cl)c24)C3)C[C@@H]1CC#N [adagrasib], for which the “combination cScore with adagrasib” value in the test with NCI-H2122 [1] is 3.82; in the test with SW837 [2], -0.47. For `C/C=C1\NC(=O)[C@H]2CSSCC/C=C/[C@H](CC(=O)N[C@H](C(C)C)C(=O)N2)OC(=O)[C@H](C(C)C)NC1=O` [Romidepsin] + C=C(F)C(=O)N1CCN(c2nc(OC[C@@H]3CCCN3C)nc3c2CCN(c2cccc4cccc(Cl)c24)C3)C[C@@H]1CC#N [adagrasib] the same measures were -1.65 and 6.42.

Turning to `Nc1ncn([C@@H]2O[C@H](CO)[C@@H](O)[C@H]2O)c(=O)n1` [Azacitidine] + C=C(F)C(=O)N1CCN(c2nc(OC[C@@H]3CCCN3C)nc3c2CCN(c2cccc4cccc(Cl)c24)C3)C[C@@H]1CC#N [adagrasib], the “combination cScore with adagrasib” value is -1.39 in the test with NCI-H2122 [1] and 9.12 in the test on SW837 [2]. For `CN[C@@H](C)C(=O)N[C@H](C(=O)N1CCC[C@H]1c1nc(C(=O)c2ccc(F)cc2)cs1)C1CCCCC1` [LCL161] + C=C(F)C(=O)N1CCN(c2nc(OC[C@@H]3CCCN3C)nc3c2CCN(c2cccc4cccc(Cl)c24)C3)C[C@@H]1CC#N [adagrasib], the “combination cScore with adagrasib” value in the test with NCI-H2122 [1] was -1.85; in the test with SW837 [2] it was 1.58. The like results for `O=c1cc(N2CCOCC2)oc2c(-c3cccc4c3sc3ccccc34)cccc12` [NU-7441] + C=C(F)C(=O)N1CCN(c2nc(OC[C@@H]3CCCN3C)nc3c2CCN(c2cccc4cccc(Cl)c24)C3)C[C@@H]1CC#N [adagrasib] were, in that order, 6.81 and 11.6. The like results for `Cc1cn(-c2cc(NC(=O)c3ccc(C)c(Nc4nccc(-c5cccnc5)n4)c3)cc(C(F)(F)F)c2)cn1` [Nilotinib] + C=C(F)C(=O)N1CCN(c2nc(OC[C@@H]3CCCN3C)nc3c2CCN(c2cccc4cccc(Cl)c24)C3)C[C@@H]1CC#N [adagrasib] were, in that order, 10.6 and 9.6.

Take `CCCS(=O)(=O)Nc1ccc(F)c(C(=O)c2c[nH]c3ncc(Cl)cc23)c1F` [PLX4720] + C=C(F)C(=O)N1CCN(c2nc(OC[C@@H]3CCCN3C)nc3c2CCN(c2cccc4cccc(Cl)c24)C3)C[C@@H]1CC#N [adagrasib]: the “combination cScore with adagrasib” value in the test on SW837 [2] was -5.68. On to `C[C@]12CC[C@@H]3c4ccc(O)cc4C[C@@H](CCCCCCCCC[S+]([O-])CCCC(F)(F)C(F)(F)F)[C@H]3[C@@H]1CC[C@@H]2O` (stereo partly specified) [Fulvestrant] (top concentration tested 1000 nM), for which the “fitted bottom plateau of viability curve” value in the test with NCI-H2122 [3] was determined as 75.9%; with SW837 [4], 91.1%.

On to `Nc1cccc2c1CN(C1CCC(=O)NC1=O)C2=O` (stereo unspecified) [Lenalidomide] (top concentration tested 10000 nM), for which the “fitted bottom plateau of viability curve” value in the test on NCI-H2122 [3] came to 84.3%; in the test with SW837 [4] it was 89.9%. Regarding `CO[C@H]1C[C@@H]2CC[C@@H](C)[C@@](O)(O2)C(=O)C(=O)N2CCCC[C@H]2C(=O)O[C@H]([C@H](C)C[C@@H]2CC[C@@H](OCCO)[C@H](OC)C2)CC(=O)[C@H](C)/C=C(\C)[C@@H](O)[C@@H](OC)C(=O)[C@H](C)C[C@H](C)/C=C/C=C/C=C/1C` [Everolimus] (top concentration tested 99.976 nM), the “fitted bottom plateau of viability curve” value in the test on NCI-H2122 [3] was determined as 76.4%; in the test on SW837 [4] it was 95.4%. The like results for `C[C@@H]1CCN(C(=O)CC#N)C[C@@H]1N(C)c1ncnc2[nH]ccc12` [Tofacitinib citrate] (top concentration tested 10000 nM) were, in that order, 63% and 99%. Turning to `C[C@@H]1C[C@H]2[C@@H]3CCC4=CC(=O)C=C[C@]4(C)[C@@]3(F)[C@@H](O)C[C@]2(C)[C@@]1(O)C(=O)CO` [Dexamethasone] (top concentration tested 10000 nM), the “fitted bottom plateau of viability curve” value turned out to be 58.2% in the test on NCI-H2122 [3] and 82% with SW837 [4]. Turning to `N[C@H]1CC[C@H](N[C@@H]2C[C@H]2c2ccccc2)CC1` [ORY-1001] + C=CC(=O)N1CCN(c2nc(=O)n(-c3c(C)ccnc3C(C)C)c3nc(-c4c(O)cccc4F)c(F)cc23)[C@@H](C)C1 [sotorasib], the “combination cScore with sotorasib” value with NCI-H2122 [5] was determined as 8.65. With `CN(C)C(=N)NC(=N)N` [Metformin] (top concentration tested 50000 nM), the “fitted bottom plateau of viability curve” value in the test on NCI-H2122 [3] stood at 76.5%; in the test on SW837 [4], 97.5%. Take `COc1ccc(Cn2ccc3ccc(C(=O)NO)cc32)cc1` (top concentration tested 10000 nM): the “fitted bottom plateau of viability curve” value worked out at 67.3% in the test on NCI-H2122 [3] and 99.9% with SW837 [4]. For `CC(C)Nc1cc(-c2c[nH]c(C(=O)N[C@H](CO)c3cccc(Cl)c3)c2)c(Cl)cn1` [Ulixertinib] (top concentration tested 99.921 nM) the same measures were 64.5% and 97.1%. Turning to `CC[C@H](C)C(=O)O[C@H]1C[C@@H](C)C=C2C=C[C@H](C)[C@H](CC[C@@H]3C[C@@H](O)CC(=O)O3)[C@H]21` [Lovastatin] (top concentration tested 10000 nM), the “fitted bottom plateau of viability curve” value in the test with NCI-H2122 [3] was 56.1%; in the test on SW837 [4], 83.6%. `Cc1[nH]c2ccccc2c1CCNCc1ccc(/C=C/C(=O)NO)cc1` [Panobinostat] + C=CC(=O)N1CCN(c2nc(=O)n(-c3c(C)ccnc3C(C)C)c3nc(-c4c(O)cccc4F)c(F)cc23)[C@@H](C)C1 [sotorasib]: the “combination cScore with sotorasib” value in the test on NCI-H2122 [5] is 0.52. On to `O=C(O)c1nn(Cc2ccc(Cl)cc2Cl)c2ccccc12` [Lonidamine] (top concentration tested 10000 nM), for which the entries for the “fitted bottom plateau of viability curve” value in the test with NCI-H2122 [3] and in the test on SW837 [4] were 77.4% and 86.4%, respectively. The like results for `CCCS(=O)(=O)Nc1ccc(F)c(C(=O)c2c[nH]c3ncc(Cl)cc23)c1F` [PLX4720] (top concentration tested 10000 nM) were, in that order, 73.6% and 101%. Regarding `CO[C@H]1C[C@@H]2CC[C@@H](C)[C@@](O)(O2)C(=O)C(=O)N2CCCC[C@H]2C(=O)O[C@H]([C@H](C)C[C@@H]2CC[C@@H](O)[C@H](OC)C2)CC(=O)[C@H](C)/C=C(\C)[C@@H](O)[C@@H](OC)C(=O)[C@H](C)C[C@H](C)/C=C/C=C/C=C/1C` [Rapamycin] (top concentration tested 1000 nM), the “fitted bottom plateau of viability curve” value came to 64.1% in the test on NCI-H2122 [3] and 88.4% in the test with SW837 [4]. In the case of `NC(=O)c1ccc(-c2nc(-c3ccccn3)c(-c3ccc4c(c3)OCO4)[nH]2)cc1` (top concentration tested 9999.9 nM), the entries for the “fitted bottom plateau of viability curve” value in the test with NCI-H2122 [3] and in the test with SW837 [4] were 96.2% and 96.5%, respectively. The like results for `C[C@H](Cc1ccc(O)c(O)c1)[C@@H](C)Cc1ccc(O)c(O)c1` [Masoprocol] (top concentration tested 9999.8 nM) were, in that order, 71.4% and 86.2%.
